The values below come from patent US10668135B2, “Methods of treating or preventing periodontitis and diseases associated with periodontitis” (The Trustees of the University of Pennsylvania, priority 2012, dated 2020).

The subject of assay [1] is ligature-induced periodontitis. Briefly: Initial NHP study: ligature-induced periodontitis, maxillary posterior teeth, split-mouth, 6 weeks, two animals. To be noted: for clinical inflammation (inflammatory clinical parameters: probing pocket depth, gingival index, bleeding on probing, mobility index): Cp40 500 μg injected locally into maxillary interdental papillae, from day 3, vs inactive analog on contralateral side, 6 weeks, FIG. 4; for levels of proinflammatory cytokines in the gingival crevicular fluid (GCF): FIG. 5; for numbers of osteoclasts (TRAP-positive multinucleated cells) in bone biopsy specimens / osteoclastogenesis: FIG. 5G. The format is in vivo, cynomolgus monkey. The method, then:
FIG. 4A, FIG. 4B, FIG. 4C, and FIG. 4D show results for probing pocket depth, gingival index, bleeding on probing, and mobility index, respectively, which are measurements typically used to detect clinical periodontal inflammation and bone lose. FIG. 4E represents a radiograph measurement of bone height. Starting 3 days after initiation of ligature-induced periodontitis, Cp40 (500 μg) was injected locally into the maxillary interdental papillae from the 1st premolar to the 2nd molar, in two animals, three times weekly. […] Shown are the effects of Cp40 on the indicated inflammatory clinical parameters and bone heights, determined using standardized X-ray images (taken at week 6) and NIKON imaging system software. Specifically, the distance between the cement-enamel junction (CEJ) and alveolar bone crest (ABC) was measured at six points (1st premolar, distal; 2nd premolar mesial & distal; 1st molar, mesial & distal; 2nd molar mesial) and the data in Panel E reflect the 6-site total. The higher CEJ-ABC distance values of the controls as compared to those of Cp40 treatments signify increased bone loss in the absence of drug treatment. In all animals, the gingival margin was at the cement-enamel junction, and thus, PPD readings equaled clinical attachment loss (CAL).
Specifically, the panels show the relative protein levels for TNF (FIG. 5A), IL-1b (FIG. 5B), IL-6 (FIG. 5C), IL-17A (FIG. 5D), receptor activator of nuclear factor kappa-B ligand (RANKL; FIG. 5E), and osteoprotegerin (OPG; FIG. 5F). At the same timepoints that clinical exams were performed (as per FIGS. 4A-4E), GCF was collected from the same monkeys (treatment details in FIGS. 4A-4E legend) using PERIOPAPER absorbent strips to assay the indicated cytokines. Total cytokine content in the eluted GCF samples was measured using MILLIPLEX MAP (multi-analyte panels) kits on a BIO-PLEX detection system. In FIG. 5G, TRAP-positive multinucleated cells (osteoclasts) were enumerated in nine serial sections for each bone biopsy specimen taken between the 2nd premolar and 1st molar of each animal.
The cynomolgus monkey model is therefore considerably more predictive of drug efficacy in human periodontitis as compared to other, widely used preclinical animal models such as rodents. Moreover, the cynomolgus model of ligature-induced periodontitis allows longitudinal examination of the disease in a way that cannot be performed in humans.
Thus, each animal served as its own control. An initial study with a 6-week duration was conducted using two animals.

The subject of assay [2] is ligature-induced periodontitis. Briefly: Second NHP study: ligature-induced periodontitis, mandibular posterior teeth, split-mouth, four monkeys. In kind it is in vivo, cynomolgus monkey. To be noted: n=4 monkeys. The method, then:
FIG. 6A, FIG. 6B, FIG. 6C, and FIG. 6D show measurements for probing pocket depth, gingival index, bleeding on probing, and mobility index, respectively, between Cp40 treated and control animals. Starting 3 days after initiation of ligature-induced periodontitis, Cp40 (500 μg) or control were injected locally into the mandibular interdental papillae from the 1st premolar to the 2nd molar, three times weekly, in opposites sides of the mouth (split-mouth design). The effects of Cp40 were determined on the indicated inflammatory clinical parameters at the indicated timepoints. In all animals, the gingival margin was at the cement-enamel junction, and thus, PPD readings equaled clinical attachment loss (CAL). Data are means±SD (n=4 monkeys). *, P<0.05; **, P<0.01 vs. control.
Specifically, levels of TNF-α (FIG. 7A), IL-1β (FIG. 7B), IL-6 (FIG. 7C), interleukin 8 (IL-8; FIG. 7D), IL-17A (FIG. 7E), interleukin 18 (IL-18; FIG. 7F), granulocyte colony-stimulating factor (G-CSF; FIG. 7G), RANKL (FIG. 7H), and OPG (FIG. 7I) were measured. At the same timepoints that clinical exams were performed (as per FIGS. 6A-6D), GCF was collected from the same monkeys (treatment details in FIGS. 6A-6D legend) using PERIOPAPER absorbent strips to assay the indicated cytokines. Total cytokine content in the eluted GCF samples was measured using MILLIPLEX MAP (multi-analyte panels) kits on a BIO-PLEX detection system. Data are means±SD (n=4 monkeys). *, P<0.05; **, P<0.01 vs. control.
FIGS. 8A-8C are graphs showing inhibition of periodontal bone loss following treatment of NHP periodontitis with Cp40. Four monkeys were treated as described in the legend to FIGS. 6A-6D, and their mandibular bone heights (CEJ-ABC distance) were measured using standardized X-ray images (taken at baseline and at week 6) and NIKON imaging system software. Measurements were made at six points (1st premolar, distal; 2nd premolar mesial & distal; 1st molar, mesial & distal; 2nd molar mesial) and the data in FIG. 8A and FIG. 8B reflect, respectively, the 6-site total at baseline (FIG. 8A) and at week 6 (FIG. 8B). For each control or Cp40 treatment, bone loss was calculated as bone height at baseline minus bone height at 6 weeks (FIG. 8C). The difference between Cp40 and control was significant (P<0.05; paired t test).
In a second NHP study, ligature-induced periodontitis was induced by placing ligatures around the mandibular posterior teeth (i.e., in the lower jaw) of the same two animals plus in two additional animals (total of four monkeys). The results obtained (FIGS. 6, 7, and 8) confirmed the results of the original study. Moreover, the presence of four animals allowed the possibility for statistical analysis.

Where [3] appears, read: Cp40 500 μg local, three times weekly, vs inactive analog control.

Entries after “also recorded” stand apart in the source; their conditions may differ.

With `CC[C@H](C)[C@H](N)C(=O)N[C@H]1CSSC[C@@H](C(=O)N[C@H](C(N)=O)[C@@H](C)O)NC(=O)[C@H](CCCN=C(N)N)NC(=O)[C@H](Cc2cnc[nH]2)NC(=O)[C@H](Cc2cnc[nH]2)NC(=O)CNC(=O)[C@H](Cc2c[nH]c3ccccc23)NC(=O)[C@H](CC(=O)O)NC(=O)[C@H](CCC(N)=O)NC(=O)[C@H](C(C)C)NC(=O)[C@H](C(C)C)NC1=O` [Compstatin, Ile-Cys*-Val-Val-Gln-Asp-Trp-Gly-His-His-Arg-Cys*-Thr], the “clinical inflammation (inflammatory clinical parameters: probing pocket depth, gingival index, bleeding on probing, mobility index)” value in assay [1] (three times weekly) is “decreased clinical inflammation”. In assay [1] (setting [3]), the “levels of proinflammatory cytokines in the gingival crevicular fluid (GCF)” value is given as “reduced levels of proinflammatory cytokines” and the “numbers of osteoclasts (TRAP-positive multinucleated cells) in bone biopsy specimens / osteoclastogenesis” value was “lower numbers of osteoclasts”.
For the molecule “dTyr-Ile-Cys*-Val-Trp(1Me)-Gln-Asp-Trp-Sar-Ala-His-Arg-Cys*-mIle-NH2 (YICVWQDWGAHRCI; D-Tyr, Trp(1Me), Sar, mIle, disulfide cyclisation, C-terminal amide; compstatin analog (Cp40); MOD_RES (1)..(1) D-Tyrosine; DISULFID (3)..(13) Cysteines joined via disulfide bridge.; MOD_RES (5)..(5) 1-methyl-tryptophan; MOD_RES (9)..(9) …ON, MeGly; MOD_RES (14)..(14) …ON; MOD_RES (14)..(14) AMIDATION)”, the “probing pocket depth (PPD), protective effect” value in assay [2] (Cp40 500 μg injected locally into mandibular interdental papillae, three times weekly, vs control, FIG. 6A) is reported as “reached statistical significance”. In assay [2] (Cp40 500 μg local mandibular, three times weekly, vs control, FIG. 6), the “inflammatory clinical parameters (overall)” value is “significant inhibition of inflammatory clinical parameters”. Besides, the “gingival index (GI), protective effect” value in assay [2] (Cp40 500 μg local mandibular, three times weekly, vs control, FIG. 6B) is on record as “reached statistical significance”. Besides, the “GCF levels of proinflammatory cytokines (cytokine responses)” value in assay [2] (Cp40 500 μg local mandibular, three times weekly, vs control, FIG. 7) was “decreased GCF levels of proinflammatory cytokines; also recorded: reached statistical significance”. For the same molecule, the “periodontal bone loss (bone height at baseline minus bone height at 6 weeks, CEJ-ABC distance)” value in assay [2] (Cp40 500 μg local mandibular, three times weekly, vs control, P<0.05 paired t test, FIG. 8C) was “significant inhibition of bone loss”. For the same molecule, the “GCF RANKL levels” value in assay [2] (Cp40 vs. control treatment, FIG. 7H) is recorded as “decreased RANKL”. Also, the “GCF OPG levels” value in assay [2] (Cp40 vs. control treatment, FIG. 7I) is “increased OPG levels”. For the same molecule, the “clinical inflammation (inflammatory clinical parameters: probing pocket depth, gingival index, bleeding on probing, mobility index)” value in assay [1] (three times weekly) is reported as “decreases inflammatory clinical parameters”. In addition, the “bone loss (radiographic bone height, CEJ-ABC distance, 6-site total)” value in assay [1] (Cp40 500 μg local, three times weekly, X-ray at week 6, vs inactive analog control, FIG. 4E) was “decreased bone loss”. In assay [1] (setting [3]), the “levels of proinflammatory cytokines in the gingival crevicular fluid (GCF)” value is “inhibits proinflammatory cytokine production” and the “numbers of osteoclasts (TRAP-positive multinucleated cells) in bone biopsy specimens / osteoclastogenesis” value is on record as “decreased osteoclastogenesis”. In addition, the “GCF levels of RANKL” value in assay [1] (Cp40 500 μg local, three times weekly, vs inactive analog control, FIG. 5E) was “decreased GCF levels of RANKL”. In addition, the “GCF levels of osteoprotegerin (OPG)” value in assay [1] (Cp40-treated sites vs control sites during the course of the study, FIG. 5F) is on record as “maintained at higher levels”.
